Experimental data reported in patent publication US20150322033A1, “ANTIBACTERIAL AGENT” (priority 2012, published 2015).
Converted amounts (≈) assume the structure as drawn. Where two headings read alike, the source gives them in different places.

Key:
[1] = tested on: S. aureus FDA209P (ATCC 6538P); assay: microbe, parasite or virus in culture; type: cell-based, Staphylococcus aureus; conditions: for MIC: Staphylococcus aureus
Protocol: (§1) S. aureus Mu50 (refer to Hiramatsu, K., Hanaki H., et al., J. Antimicrob. Chemother., 1997, 40(1), 135-6) or S. aureus FDA209P (ATCC 6538P) was cultured overnight at 37° C. in 4 mL of TBS (Tryptical Soy Broth, produced by Becton Dickinson) with shaking. After completion of the culture, the cells were suspended in fresh TBS to prepare a cell suspension showing an absorbance of 0.3 at 578 nm. Then, the cell suspension was diluted 500 times with CAMHB mentioned above.
(§2) CAMHB containing each test compound at each of the aforementioned concentrations was added to each well of a 96-well plate in a volume of 50 μL/well, the aforementioned cell suspension diluted 500 time was added to the well in a volume of 50 μL/well, and stationary culture was carried out overnight at 37° C.
(§3) MIC values (mg/L) of the flavones and quinolones against the strains were measured in the same manner as that of the measurement of MIC of Example 1, except that CAMHB containing each of the aforementioned flavones and quinolones prepared in Example 2 was used instead of CAMHB containing each of the test compounds.
(§4) MIC values of the flavones and quinolone for the strains were measured in the same manners as those of Example 1, except that S. aureus Mu50 NR-1 was also used as Staphylococcus aureus in addition to S. aureus FDA209P and S. aureus Mu50, cell suspensions of the strains were prepared.
(§5) In the same manner as that of Example 1, MIC values of M-246, M-21, J-Q21, and J-Q12.1 for Staphylococcus aureus were measured. M-246 and M-21 were obtained as commercial products, and as J-Q21 and J-Q12.1, those synthesized in Examples 6 and 7 were used.

S. aureus Mu50 = assay: microbe, parasite or virus in culture; type: cell-based, Staphylococcus aureus; conditions: for MIC ratio: (MIC value for S. aureus FDA209P)/(MIC value for S. aureus Mu50); for MIC: Staphylococcus aureus; for MIC (mg/L) Mu50: Example 1, Tables 1 to 10
Protocol: as §1, §2, §3, §4, §5

S. aureus Mu50 NR1-1 = assay: MIC by broth microdilution, S. aureus Mu50 NR1-1; type: cell-based; conditions: Staphylococcus aureus, MU50NR11; Example 3, Table 13; read-out: MIC (mg/L) Mu50 NR1-1 (S80F, w)
Protocol: as §4
S. aureus Mu50 NR1-1 mentioned in Table 13 is a strain selected stepwise from the clinically isolated S. aureus Mu50 strain with deoxynybomycin, and it has a topoisomerase IV encoded by parC in which a […] (see, Hiramatsu K. et al., J. Antimicrob. Agents, 2012, June; 39 (6), 478-85).
In Table 13, the descriptions in the parentheses after the strains indicate the mutated amino acid residue and its position, as represented by (the mutation of topoisomerase IV resulting from the mutation of parCand the mutation of DNA gyrase resulting from the mutation of gyrA). The character “w” means wild-type, representing without mutation.

[2] = Example 1, Tables 1 to 10, read-out: MIC (mg/L) FDA209P
[3] = Example 2, Table 12, read-out: MIC (mg/L) S. aureus FDA209P
[4] = Example 3, Table 13, read-out: MIC (mg/L) FDA209P (w, w)
[5] = MU50, read-out: MIC (mg/L) Mu50, Example 1, Tables 1 to 10
[6] = MU50, read-out: MIC (mg/L) S. aureus Mu50, Example 2, Table 12
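Throughout, for MIC ratio: ratio is FDA209P MIC divided by Mu50 MIC.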

| SMILES | MIC [1, 2] | MIC (S. aureus Mu50; [5]) | also measured |
| --- | --- | --- | --- |
| O.O=c1c(O)c(-c2ccc(O)c(O)c2)oc2cc(O)cc(O)c12 [No. 1, 3,3′,4′,5,7-Pentahydroxyflavone Hydrate] | 64 mg/L | ≤ 32 mg/L | MIC [1, 3]: 64 mg/L; MIC [1, 4]: 64 mg/L; MIC ratio (S. aureus Mu50): 2; MIC (S. aureus Mu50; [6]): 32 mg/L; MIC (S. aureus Mu50 NR1-1): 64 mg/L |
| O.O=c1c(O)c(-c2ccc(O)cc2)oc2cc(O)cc(O)c12 [No. 4, 3,4′,5,7-Tetrahydroxyflavone Hydrate] | 16 mg/L | 8 mg/L | MIC [1, 3]: 16 mg/L; MIC [1, 4]: 16 mg/L; MIC ratio (S. aureus Mu50): 2; MIC (S. aureus Mu50; [6]): 8 mg/L; MIC (S. aureus Mu50 NR1-1): 16 mg/L |
| O=c1cc(-c2ccc(O)c(O)c2)oc2cc(O)cc(O)c12 [No. 6, 3′,4′,5,7-Tetrahydroxyflavone] | 32 mg/L (≈ 112 µM) | – | MIC [1, 3]: 32 mg/L (≈ 112 µM); MIC [1, 4]: 32 mg/L (≈ 112 µM); MIC ratio (S. aureus Mu50): 4; MIC (S. aureus Mu50; [6]): 8 mg/L (≈ 27.9 µM); MIC (S. aureus Mu50 NR1-1): 32 mg/L (≈ 112 µM) |
| COc1ccc2c(=O)cc(-c3ccccc3)oc2c1 [No. 15, 7-Methoxyflavone] | 128 mg/L (≈ 507 µM) | 32 mg/L (≈ 127 µM) | MIC [1, 3]: 128 mg/L (≈ 507 µM); MIC [1, 4]: 128 mg/L (≈ 507 µM); MIC ratio (S. aureus Mu50): 4; MIC (S. aureus Mu50; [6]): 32 mg/L (≈ 127 µM); MIC (S. aureus Mu50 NR1-1): 128 mg/L (≈ 507 µM) |
| COc1cc(O)c2c(=O)c(OC)c(-c3cc(O)c(OC)c(OC)c3)oc2c1 [No. 24, 5-hydroxy-2-(3-hydroxy-4,5-dimethoxyphenyl)-3,7-dimethoxychromen-4-one] | 128 mg/L (≈ 342 µM) | 8 mg/L (≈ 21.4 µM) | MIC [1, 3]: 128 mg/L (≈ 342 µM); MIC [1, 4]: 128 mg/L (≈ 342 µM); MIC ratio (S. aureus Mu50): 16; MIC (S. aureus Mu50; [6]): 8 mg/L (≈ 21.4 µM); MIC (S. aureus Mu50 NR1-1): 128 mg/L (≈ 342 µM) |
| COc1cc(-c2oc3c(OC)c(O)cc(O)c3c(=O)c2O)ccc1O [No. 38, 3,5,7-trihydroxy-2-(4-hydroxy-3-methoxyphenyl)-8-methoxychromen-4-one] | 128 mg/L (≈ 370 µM) | 32 mg/L (≈ 92.4 µM) | MIC [1, 3]: 128 mg/L (≈ 370 µM); MIC [1, 4]: 128 mg/L (≈ 370 µM); MIC ratio (S. aureus Mu50): 4; MIC (S. aureus Mu50; [6]): 32 mg/L (≈ 92.4 µM); MIC (S. aureus Mu50 NR1-1): 64 mg/L (≈ 185 µM) |
| COc1cc(O)c2c(=O)c(OC)c(-c3ccc(O)c(OC)c3)oc2c1 [No. 66, 5-hydroxy-2-(4-hydroxy-3-methoxyphenyl)-3,7-dimethoxychromen-4-one] | 128 mg/L (≈ 372 µM) | 32 mg/L (≈ 92.9 µM) | MIC [1, 3]: 128 mg/L (≈ 372 µM); MIC [1, 4]: 128 mg/L (≈ 372 µM); MIC ratio (S. aureus Mu50): 4; MIC (S. aureus Mu50; [6]): 32 mg/L (≈ 92.9 µM); MIC (S. aureus Mu50 NR1-1): 128 mg/L (≈ 372 µM) |
| COc1c(O)cc2occ(-c3ccc(O)cc3)c(=O)c2c1O [compound 100] | 128 mg/L (≈ 426 µM) | 128 mg/L (≈ 426 µM) | – |
| O=c1c(-c2ccc(O)cc2O)coc2cc(O)cc(O)c12 [compound 101] | 128 mg/L (≈ 447 µM) | 128 mg/L (≈ 447 µM) | – |
| O=C(O)COc1cc(O)c2c(=O)c(-c3ccc4c(c3)OCCO4)coc2c1 [compound 102] | 128 mg/L (≈ 346 µM) | 128 mg/L (≈ 346 µM) | – |
| CC(=O)Oc1cc(OC(C)=O)c2c(=O)c(-c3ccc4c(c3)OCCO4)coc2c1 [compound 104] | 128 mg/L (≈ 323 µM) | 64 mg/L (≈ 161 µM) | – |
| CC1(C)C=Cc2c(c3c(c4c2OCC(c2ccc(O)cc2)C4=O)OC(C)(C)C=C3)O1 (stereo not shown) [compound 105] | 128 mg/L (≈ 316 µM) | 128 mg/L (≈ 316 µM) | – |
| O=c1c(-c2ccc3c(c2)OCCO3)coc2cc(O)cc(O)c12 [compound 106] | – | – | MIC (mg/L) FDA209P ([1]; Example 1, Tables 1 to 10): 64 mg/L (≈ 205 µM); MIC (mg/L) Mu50 (S. aureus Mu50): 64 mg/L (≈ 205 µM) |
| O=c1c(-c2ccc3c(c2)OCCCO3)coc2cc(O)cc(O)c12 [compound 107] | 128 mg/L (≈ 392 µM) | 128 mg/L (≈ 392 µM) | – |
| COc1ccc(-c2coc3cc(O)cc(OC)c3c2=O)cc1OC [compound 108] | 128 mg/L (≈ 390 µM) | 128 mg/L (≈ 390 µM) | – |
| CC(=O)Oc1cc(OC(C)=O)c2c(=O)c(-c3ccc4c(c3)OCCCO4)c(C)oc2c1 [compound 109] | 128 mg/L (≈ 302 µM) | 128 mg/L (≈ 302 µM) | – |
| COc1ccc(-c2coc3cc(OC4OC(CO)C(O)C(O)C4O)cc(O)c3c2=O)cc1 (stereo not shown) [compound 110] | – | – | MIC (mg/L) FDA209P ([1]; Example 1, Tables 1 to 10): 128 mg/L (≈ 287 µM); MIC (mg/L) Mu50 (S. aureus Mu50): 128 mg/L (≈ 287 µM) |
| COc1cc(OC)c2c(=O)c(-c3ccc(OC)c(OC)c3)coc2c1 [compound 111] | > 128 mg/L | 128 mg/L (≈ 374 µM) | – |

| SMILES | MIC [1, 2] | MIC (S. aureus Mu50; [5]) | also measured |
| --- | --- | --- | --- |
| COc1cc(O)c2c(=O)c(-c3ccc(O)cc3)coc2c1 [compound 112] | > 128 mg/L | > 128 mg/L | – |
| O=c1c(-c2ccc(O)cc2)coc2cc(O)cc(O)c12 [compound 113] | 128 mg/L (≈ 474 µM) | 128 mg/L (≈ 474 µM) | – |
| CCOC(=O)c1oc2cc(O)cc(O)c2c(=O)c1-c1ccc(OC)c(OC)c1 [compound 114] | > 128 mg/L | > 128 mg/L | – |
| COc1ccc(-c2coc3cc(O)cc(O)c3c2=O)cc1 [compound 116] | 128 mg/L (≈ 450 µM) | 128 mg/L (≈ 450 µM) | – |
| COc1ccc(-c2coc3cc(O)cc(O)c3c2=O)cc1OC [compound 117] | > 128 mg/L | > 128 mg/L | – |
| COc1ccc(-c2c(C(F)(F)F)oc3cc(O)cc(O)c3c2=O)cc1OC [compound 118] | 128 mg/L (≈ 335 µM) | 64 mg/L (≈ 167 µM) | – |
| COc1ccc(-c2c(C)oc3cc(OC(C)=O)cc(OC(C)=O)c3c2=O)cc1 [compound 119] | > 128 mg/L | > 128 mg/L | – |
| O=c1c(-c2ccc(O[C@@H]3O[C@H](CO)[C@@H](O)[C@H](O)[C@H]3O)cc2)coc2cc(O)cc(O)c12 [compound 120] | – | – | MIC (mg/L) FDA209P ([1]; Example 1, Tables 1 to 10): >128 mg/L; MIC (mg/L) Mu50 (S. aureus Mu50): >128 mg/L |
| COc1cc(OC)c2c(=O)c(-c3ccc(O)cc3)coc2c1 [compound 121] | > 128 mg/L | > 128 mg/L | – |
| CC1(CO)C=Cc2c(cc3occ(-c4ccc(O)cc4)c(=O)c3c2O)O1 (stereo not shown) [compound 122] | > 128 mg/L | > 128 mg/L | – |
| O=C1CC(c2ccc(O)cc2)Oc2ccccc21 (stereo not shown) [compound 123, 4′-Hydroxyflavanone] | 128 mg/L (≈ 533 µM) | 128 mg/L (≈ 533 µM) | – |
| O=C1CC(c2cccc(O)c2)Oc2ccccc21 (stereo not shown) [compound 124, 3′-Hydroxyflavanone] | 128 mg/L (≈ 533 µM) | 128 mg/L (≈ 533 µM) | – |
| COc1ccc(C2CC(=O)c3c(O)cc(O)cc3O2)cc1O (stereo not shown) [compound 125] | 128 mg/L (≈ 423 µM) | > 128 mg/L | – |
| O=C1CC(c2ccccc2)Oc2ccccc21 (stereo not shown) [compound 126] | 128 mg/L (≈ 571 µM) | 128 mg/L (≈ 571 µM) | – |
| O=C1CC(c2ccc(O)cc2)Oc2cc(O)cc(O)c21 (stereo not shown) [compound 128, 4′,5,7-Trihydroxyflavanone] | 128 mg/L (≈ 470 µM) | 128 mg/L (≈ 470 µM) | – |
| COc1cc(-c2[o+]c3cc(O)cc(O)c3cc2O)cc(OC)c1O [compound 130] | – | – | MIC (mg/L) FDA209P ([1]; Example 1, Tables 1 to 10): 128 mg/L; MIC (mg/L) Mu50 (S. aureus Mu50): 128 mg/L |
| COc1cc(-c2[o+]c3cc(O)cc(O)c3cc2O)cc(O)c1O [compound 131] | – | – | MIC (mg/L) FDA209P ([1]; Example 1, Tables 1 to 10): 128 mg/L; MIC (mg/L) Mu50 (S. aureus Mu50): 128 mg/L |
| O.Oc1cc(O)c2c(c1)OC(c1ccc(O)c(O)c1)C(O)C2 (stereo not shown) [compound 133, 3,3′,4′,5,7-Flavanpentol Hydrate] | – | – | MIC (mg/L) FDA209P ([1]; Example 1, Tables 1 to 10): 128 mg/L; MIC (mg/L) Mu50 (S. aureus Mu50; Hydrate): >128 mg/L |
